From patent US8741871B2, “Trehalose compound, method for producing same, and pharmaceutical product containing the compound” (priority 2008, dated 2014)

Experiments:
rabbit neutrophils [1] = assay: Measurement of amount of active oxygen released from rabbit neutrophils; format: cell-based; conditions: 50 μM, 2 hours; FIG. 3
Method: 5 ml of the ACD solution was placed in a 20-ml syringe (injection needle [Nipro]), so that the inside of the syringe was entirely rinsed therewith. 20 ml of blood was collected from the central auricular artery of a rabbit using the syringe, and the collected blood was gently shaken upside down. Thereafter, the blood was dispensed into three centrifuge tubes (15 ml type; Falcon), and each tube was then subjected to centrifugation at 4° C. at 1,500 rpm for 5 minutes. Thereafter, the supernatant was recovered into a centrifuge tube (50 ml type; Falcon). A 1.2% dextran-PBS solution was added to the recovered supernatant in an amount equal the supernatant, and the obtained mixture was then gently shaken upside down. Thereafter, the mixture was left at a room temperature for 30 minutes or more. The emergence of an interface was confirmed, and the supernatant was placed in a new centrifuge tube (50 ml type; Falcon). […]
The influence of the test compound on the release of active oxygen from rabbit neutrophils was measured by the following procedures.
Neutrophils (1.0×10^5 cells/100 μl) were plated on a 96-well plate (Falcon). […] The obtained mixture was incubated at 37° C. for 2 hours, and the amount of active oxygen released was measured using a fluorescence measurement apparatus (Ex: 485 nm, Em: 535 nm).

rabbit neutrophils [2] = format: cell-based
[3] = system: mouse intraperitoneal infiltrating cells; assay: Cell infiltration into mouse abdominal cavity (cell count, Giemsa staining, flow cytometry); conditions: 100 μg/mouse i.p.
Pseudomonas aeruginosa = format: in vivo; conditions: 100 μg/mouse i.p., twenty-four hours later infection; blood fifteen hours after bacteria; FIG. 19
Method: Twenty-four hours later, the mice were infected with 3.0×10^10 CFU/mL Pseudomonas aeruginosa. Fifteen hours after administration of the bacteria, blood was collected from the heart using an injection with a needle tip containing a small amount of heparin, and 200 μL of whole blood was then inoculated on a common agar medium. Thereafter, it was incubated in an incubator for 16 hours. Subsequently, the number of colonies on the medium was counted.
When there were a large number of cells, whole blood was diluted with a normal saline solution by a factor of 10, 100, 1000 or 10000, and the thus diluted solution was inoculated on a common agar medium.

[4] = twenty-four hours after administration, flow cytometry

| SMILES | action to activate the release of active oxygen from rabbit neutrophils, compared with TDCM (rabbit neutrophils [1]) | phagocytic ability of rabbit neutrophils, activity compared with TDCM (rabbit neutrophils [2]) | infiltrating cells in the abdominal cavity of mice over time ([3]; 2 hours or 24 hours after administration, FIG. 12) | abundance ratio of the CD11b-positive cells and CD4-positive cells compared with vehicle [3, 4] | total number of CD11b-positive cells, CD4-positive cells and CD8-positive cells compared with vehicle [3, 4] | abundance ratio of the CD8-positive cells compared with vehicle ([3]; twenty-four hours after administration, flow cytometry, FIGS. 13 to 15) | number of infiltrating cells in mouse abdominal cavity compared with vehicle ([3]; twenty-four hours later, FIG. 12) | Pseudomonas aeruginosa cells in mouse blood (colonies) (Pseudomonas aeruginosa) |
| --- | --- | --- | --- | --- | --- | --- | --- | --- |
| CCCCCCCCCCC(CCCCCCCCCC)C(=O)OCC1O[C@H](O[C@H]2OC(COC(=O)C(CCCCCCCCCC)CCCCCCCCCC)[C@@H](O)C(O)C2O)C(O)C(O)[C@@H]1O (stereo partly drawn) [Example 1, 6,6′-bis-O-(2-decyldodecanoyl)-α,α′-trehalose] | approximately two times higher than the activity of TDCM | approximately 2 times |  |  |  |  |  |  |
| CCCCCCCCCC(CCCCCCCCC)CC(=O)OCC1O[C@H](O[C@H]2OC(COC(=O)CC(CCCCCCCCC)CCCCCCCCC)[C@@H](O)C(O)C2O)C(O)C(O)[C@@H]1O (stereo partly drawn) [Example 9, 6,6′-bis-O-(3-nonyldodecanoyl)-α,α′-trehalose] |  |  | an increase in infiltrating cells was observed time-dependently | hardly changed | 15 to 20 times | 2 to 3 times | 15 to 20 times | not detected |
